One data set concerns the target HDAC6 (Homo sapiens (Human), UniProt Q9UBN7). Put plainly: HDAC6 enzymatic assay. The class given is biochemical. The method in brief: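 Following a 17 hour room-temperature incubation of 2 ng HDAC6 with 10 uM substrate and compound, 50 μl developer was added for another 20 minutes, and fluorescence (excitation 360 nm, emission 460 nm) was recorded. Activity was normalized to no-compound (100%) and no-enzyme (0%) wells, and IC50 came from sigmoidal dose-response fitting in Graphpad Prism.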

The next data set deals with HDAC7 (Homo sapiens (Human), UniProt Q8WUI4). As to the kind of experiment: HDAC7 enzymatic assay. Particulars: selectivity profile; read-out: HDAC Enzyme IC50, HDAC 7. The class given is biochemical. An outline of the steps:
(§1)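 Duplicate wells; 17 h RT; buffer 50 mM Tris-HCl pH 7.4, 137 mM NaCl; DMSO 1% final. HDAC2 0.5 ng + 10 uM substrate; HDAC9 1 ng + 2 uM; HDAC10 75 ng + 10 uM; HDAC7 0.05 ng + 2 uM. Developer 20 min, FI 360/460 nm, IC50 by sigmoidal fit.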

For a further data set, the target named is HDAC3/NCOR2 (Homo sapiens (Human), UniProt O15379). As to the kind of experiment: HDAC3 enzymatic assay. Particulars: selectivity profile; read-out: HDAC Enzyme IC50, HDAC 3. The class given is biochemical.
The target in the next data set is HDAC2 (Homo sapiens (Human), UniProt Q92769). Put plainly: HDAC2 enzymatic assay. It is filed as biochemical. Conditions: selectivity profile; read-out: HDAC Enzyme IC50, HDAC 2. The method in brief: as §1
HDAC2, sequence (Q92769 whole entry, species assumed): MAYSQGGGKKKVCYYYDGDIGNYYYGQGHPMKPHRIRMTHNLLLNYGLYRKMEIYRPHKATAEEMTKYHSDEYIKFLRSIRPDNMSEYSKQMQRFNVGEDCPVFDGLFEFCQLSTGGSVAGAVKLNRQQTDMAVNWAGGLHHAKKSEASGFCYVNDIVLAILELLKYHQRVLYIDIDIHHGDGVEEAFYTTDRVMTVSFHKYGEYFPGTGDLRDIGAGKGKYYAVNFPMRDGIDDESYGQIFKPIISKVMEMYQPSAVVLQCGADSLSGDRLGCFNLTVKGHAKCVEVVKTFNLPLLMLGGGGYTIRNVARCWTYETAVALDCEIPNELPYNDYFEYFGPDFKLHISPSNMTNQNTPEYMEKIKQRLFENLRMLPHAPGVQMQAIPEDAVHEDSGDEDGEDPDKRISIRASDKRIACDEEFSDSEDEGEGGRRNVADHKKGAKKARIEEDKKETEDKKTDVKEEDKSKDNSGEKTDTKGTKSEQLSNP
Data set [1] can be described thus: Mouse Pharmacokinetics, oral single dose. It is filed as in vivo, male Swiss Albino mice. Particulars: male, Swiss Albino, plasma, 5 mg/kg, formulation by footnote: a 20% CremEL in H20, b 1% CMC in water, c 2% DMSO, 0.2% Tween80, 97.8% of 1% CMC. The procedure: Example 187: Mouse Pharmacokinetics
A dose of 5 mg/kg in an appropriate formulation was administered by oral gavage to fasted male Swiss Albino mice (n=3), and the plasma was collected at 0, 0.25, 0.5, 1, 2, 4, 8, and 24 h. Plasma levels were measured by HPLC/MS/MS methods and the pharmacokinetic parameters were determined for individual animals from plasma concentration-time data using noncompartmental model 200-202 in Phoenix WinNonlin 6.3.

For a further data set, the target named is HDAC4 (Homo sapiens (Human), UniProt P56524). Put plainly: HDAC4 enzymatic assay. It is filed as biochemical. Particulars: selectivity profile; read-out: HDAC Enzyme IC50, HDAC 4.
HDAC4, sequence (P56524 whole entry, species assumed): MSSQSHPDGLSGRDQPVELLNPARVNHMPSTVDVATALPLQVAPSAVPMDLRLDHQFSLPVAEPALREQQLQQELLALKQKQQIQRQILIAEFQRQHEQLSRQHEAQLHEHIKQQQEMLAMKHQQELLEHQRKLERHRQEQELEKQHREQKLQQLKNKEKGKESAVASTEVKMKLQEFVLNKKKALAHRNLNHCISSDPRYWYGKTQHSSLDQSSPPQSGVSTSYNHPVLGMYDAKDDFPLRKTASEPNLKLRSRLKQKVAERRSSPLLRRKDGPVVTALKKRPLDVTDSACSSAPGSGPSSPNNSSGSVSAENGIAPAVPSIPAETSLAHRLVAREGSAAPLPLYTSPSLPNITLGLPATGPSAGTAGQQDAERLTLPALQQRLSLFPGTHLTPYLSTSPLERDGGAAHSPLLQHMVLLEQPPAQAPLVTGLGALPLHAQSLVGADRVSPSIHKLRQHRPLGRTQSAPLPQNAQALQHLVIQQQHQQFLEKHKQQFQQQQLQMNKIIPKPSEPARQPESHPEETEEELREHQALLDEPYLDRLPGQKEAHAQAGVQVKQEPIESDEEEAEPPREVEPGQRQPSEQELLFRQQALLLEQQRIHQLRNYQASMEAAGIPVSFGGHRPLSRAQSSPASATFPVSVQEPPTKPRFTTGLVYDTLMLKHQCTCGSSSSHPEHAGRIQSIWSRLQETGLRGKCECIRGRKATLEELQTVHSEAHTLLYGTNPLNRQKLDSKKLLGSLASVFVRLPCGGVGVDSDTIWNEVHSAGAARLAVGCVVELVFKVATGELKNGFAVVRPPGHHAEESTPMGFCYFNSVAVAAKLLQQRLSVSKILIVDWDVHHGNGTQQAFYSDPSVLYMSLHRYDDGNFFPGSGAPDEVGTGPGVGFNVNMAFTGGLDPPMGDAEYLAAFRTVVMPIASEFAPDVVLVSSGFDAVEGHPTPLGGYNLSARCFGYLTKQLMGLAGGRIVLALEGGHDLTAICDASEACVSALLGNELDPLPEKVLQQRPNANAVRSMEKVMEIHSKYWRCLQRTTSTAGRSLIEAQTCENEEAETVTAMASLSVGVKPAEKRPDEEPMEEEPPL
In a further data set the target is HDAC11 (Homo sapiens (Human), UniProt Q96DB2). Put plainly: HDAC11 enzymatic assay. The class given is biochemical. Particulars: selectivity profile; read-out: HDAC Enzyme IC50, HDAC 11.
HDAC11, sequence (Q96DB2 whole entry, species assumed): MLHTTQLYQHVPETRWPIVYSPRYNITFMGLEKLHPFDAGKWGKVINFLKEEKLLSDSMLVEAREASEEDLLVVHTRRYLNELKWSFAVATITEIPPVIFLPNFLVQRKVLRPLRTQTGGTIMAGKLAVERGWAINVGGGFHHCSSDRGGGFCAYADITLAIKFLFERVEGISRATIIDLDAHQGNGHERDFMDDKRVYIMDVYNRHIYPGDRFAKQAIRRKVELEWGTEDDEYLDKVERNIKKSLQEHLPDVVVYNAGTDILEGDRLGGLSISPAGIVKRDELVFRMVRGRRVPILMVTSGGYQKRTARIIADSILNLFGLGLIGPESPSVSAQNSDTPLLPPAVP
In a further data set the target is HDAC10 (Homo sapiens (Human), UniProt Q969S8). As to the kind of experiment: HDAC10 enzymatic assay. The class given is biochemical. Particulars: selectivity profile; read-out: HDAC Enzyme IC50, HDAC 10. An outline of the steps: as §1
The next data set concerns the target HDAC8 (Homo sapiens (Human), UniProt Q9BY41). As to the kind of experiment: HDAC8 enzymatic assay. The class given is biochemical. Particulars: selectivity profile; read-out: HDAC Enzyme IC50, HDAC 8.
The target in the next data set is HDAC5 (Homo sapiens (Human), UniProt Q9UQL6). As to the kind of experiment: HDAC5 enzymatic assay. Conditions: selectivity profile; read-out: HDAC Enzyme IC50, HDAC 5. The class given is biochemical.
HDAC5, sequence (Q9UQL6 whole entry, species assumed): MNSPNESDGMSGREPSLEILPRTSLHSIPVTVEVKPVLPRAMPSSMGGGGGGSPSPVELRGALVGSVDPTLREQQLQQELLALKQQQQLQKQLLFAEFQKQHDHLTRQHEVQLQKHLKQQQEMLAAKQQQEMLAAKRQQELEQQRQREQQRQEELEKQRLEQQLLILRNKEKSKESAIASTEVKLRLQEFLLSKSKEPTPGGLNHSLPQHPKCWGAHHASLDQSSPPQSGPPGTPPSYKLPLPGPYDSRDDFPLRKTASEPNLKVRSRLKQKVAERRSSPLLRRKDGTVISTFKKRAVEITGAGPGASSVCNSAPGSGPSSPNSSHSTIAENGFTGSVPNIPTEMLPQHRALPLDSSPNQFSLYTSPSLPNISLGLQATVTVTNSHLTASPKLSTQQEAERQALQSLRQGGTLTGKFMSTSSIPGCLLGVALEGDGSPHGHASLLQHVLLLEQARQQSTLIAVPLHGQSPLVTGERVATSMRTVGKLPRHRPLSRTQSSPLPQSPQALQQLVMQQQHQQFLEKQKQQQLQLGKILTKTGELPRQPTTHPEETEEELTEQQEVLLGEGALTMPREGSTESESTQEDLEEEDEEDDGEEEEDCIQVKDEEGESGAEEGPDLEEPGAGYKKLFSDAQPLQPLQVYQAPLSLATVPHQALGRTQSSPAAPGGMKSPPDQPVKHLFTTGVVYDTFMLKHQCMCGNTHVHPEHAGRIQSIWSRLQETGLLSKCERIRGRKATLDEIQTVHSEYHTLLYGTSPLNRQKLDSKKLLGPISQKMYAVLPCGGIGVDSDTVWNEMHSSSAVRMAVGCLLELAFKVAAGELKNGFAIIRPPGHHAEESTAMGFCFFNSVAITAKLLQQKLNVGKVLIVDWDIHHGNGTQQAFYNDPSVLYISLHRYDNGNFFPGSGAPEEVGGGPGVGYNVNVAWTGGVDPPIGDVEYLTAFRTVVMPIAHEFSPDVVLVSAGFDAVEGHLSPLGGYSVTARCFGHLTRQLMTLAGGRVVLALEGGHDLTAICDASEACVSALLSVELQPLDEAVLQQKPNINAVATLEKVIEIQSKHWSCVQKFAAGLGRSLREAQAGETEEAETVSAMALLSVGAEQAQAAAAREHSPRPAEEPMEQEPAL
The next data set deals with HDAC9 (Homo sapiens (Human), UniProt Q9UKV0). Put plainly: HDAC9 enzymatic assay. The class given is biochemical. Particulars: selectivity profile; read-out: HDAC Enzyme IC50, HDAC 9. An outline of the steps: as §1
The next data set addresses HDAC1 (Homo sapiens (Human), UniProt Q13547). Put plainly: HDAC1 enzymatic assay. It is filed as biochemical. The method in brief: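 Compound inhibition of human HDAC1 (0.5 ng enzyme, 10 uM substrate) was assessed by fluorescence after developer treatment, excitation 360 nm and emission 460 nm. Percent activity was normalized to no-compound (100%) and no-enzyme (0%) controls, plotted against concentration, and fitted to a sigmoidal dose-response curve in Graphpad Prism to obtain IC50 at half-maximal activity.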

Structures are written as SMILES. Where two headings read alike, the source gives them in different places.

HDAC1, sequence (Q13547 whole entry): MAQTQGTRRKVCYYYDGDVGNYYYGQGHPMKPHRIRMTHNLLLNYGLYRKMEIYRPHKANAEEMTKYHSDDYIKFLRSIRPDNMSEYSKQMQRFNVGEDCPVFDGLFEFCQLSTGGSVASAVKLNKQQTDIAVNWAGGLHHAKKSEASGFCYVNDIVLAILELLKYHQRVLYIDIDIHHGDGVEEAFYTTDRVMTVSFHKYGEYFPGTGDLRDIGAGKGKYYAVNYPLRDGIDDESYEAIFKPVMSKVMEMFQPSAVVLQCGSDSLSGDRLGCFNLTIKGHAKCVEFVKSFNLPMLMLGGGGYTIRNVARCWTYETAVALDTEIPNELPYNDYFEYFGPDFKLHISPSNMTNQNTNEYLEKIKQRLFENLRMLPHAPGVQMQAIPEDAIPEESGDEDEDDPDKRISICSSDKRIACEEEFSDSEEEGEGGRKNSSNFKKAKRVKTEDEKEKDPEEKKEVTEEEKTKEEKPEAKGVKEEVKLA
HDAC6, sequence (Q9UBN7 whole entry): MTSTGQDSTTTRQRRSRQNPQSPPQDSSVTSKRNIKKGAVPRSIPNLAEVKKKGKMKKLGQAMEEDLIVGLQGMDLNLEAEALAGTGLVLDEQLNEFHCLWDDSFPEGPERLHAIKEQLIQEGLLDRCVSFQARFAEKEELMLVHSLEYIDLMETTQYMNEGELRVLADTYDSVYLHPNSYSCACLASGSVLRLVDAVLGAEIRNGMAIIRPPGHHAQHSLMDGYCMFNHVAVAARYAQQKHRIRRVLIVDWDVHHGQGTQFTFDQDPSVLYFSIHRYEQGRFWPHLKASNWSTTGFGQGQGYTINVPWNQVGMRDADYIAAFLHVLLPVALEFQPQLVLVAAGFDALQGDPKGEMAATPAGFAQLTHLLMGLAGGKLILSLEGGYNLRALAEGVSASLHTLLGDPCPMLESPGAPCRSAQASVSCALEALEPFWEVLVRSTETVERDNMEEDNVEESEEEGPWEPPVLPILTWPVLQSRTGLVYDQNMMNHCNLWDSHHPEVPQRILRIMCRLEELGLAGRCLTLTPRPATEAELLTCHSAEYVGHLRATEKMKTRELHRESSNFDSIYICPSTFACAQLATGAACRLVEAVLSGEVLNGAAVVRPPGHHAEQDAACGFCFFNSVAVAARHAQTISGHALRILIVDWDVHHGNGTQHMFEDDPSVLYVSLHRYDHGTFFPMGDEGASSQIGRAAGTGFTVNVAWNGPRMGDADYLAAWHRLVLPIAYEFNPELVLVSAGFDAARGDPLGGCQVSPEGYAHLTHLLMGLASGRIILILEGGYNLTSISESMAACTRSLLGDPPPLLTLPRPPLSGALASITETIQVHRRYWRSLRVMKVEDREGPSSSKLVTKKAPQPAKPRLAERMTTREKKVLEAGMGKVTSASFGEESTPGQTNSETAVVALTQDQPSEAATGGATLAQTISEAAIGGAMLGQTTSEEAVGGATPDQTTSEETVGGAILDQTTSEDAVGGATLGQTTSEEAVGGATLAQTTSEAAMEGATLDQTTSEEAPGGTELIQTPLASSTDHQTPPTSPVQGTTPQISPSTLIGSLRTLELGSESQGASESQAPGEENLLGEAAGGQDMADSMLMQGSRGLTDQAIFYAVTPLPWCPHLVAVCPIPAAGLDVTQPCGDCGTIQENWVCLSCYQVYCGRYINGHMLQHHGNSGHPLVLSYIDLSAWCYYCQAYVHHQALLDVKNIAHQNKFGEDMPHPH

A word on the IC50: it is the concentration that gives 50% inhibition. A word on the Cmax: it is the highest concentration seen after dosing. By half-life is commonly meant how long it takes for the measured level to halve. Read a low half-life as fast loss. For `O=S(=O)(NCC(Nc1ncc(-c2nnc(C(F)F)o2)cn1)c1ccc(F)cc1)C1CC1` (stereo not drawn) [Example 110, N-(2-((5-(5-(difluoromethyl)-1,3,4-oxadiazol-2-yl)pyrimidin-2-yl)amino)-2-(4-fluorophenyl)ethyl)cyclopropanesulfonamide], the IC50 on HDAC6 (read-out: Human HDAC6 IC50) is 0.028 µM; on HDAC6 (selectivity profile, read-out: HDAC Enzyme IC50, HDAC 6) it was 0.028 µM; at HDAC7, > 30 µM; at HDAC3/NCOR2, > 30 µM; at HDAC2, > 30 µM; at HDAC4 it was > 30 µM. Further, the IC50 on HDAC11, at HDAC10, at HDAC8, at HDAC5, at HDAC9 and at HDAC1 (read-out: Human HDAC1 IC50) was > 30 µM throughout. Moreover, the IC50 on HDAC1 (selectivity profile, read-out: HDAC Enzyme IC50, HDAC 1) was > 30 µM. Moreover, in data set [1], the Cmax stood at 830 ng/mL. This compound also gave a half-life in [1] of 4.3 h.

These data come from US10357493B2, “Metalloenzyme inhibitor compounds” (Selenity Therapeutics (Bermuda), Ltd., priority 2017, dated 2019).
